This series addresses APP. Description: mouse, dose not given. As to conditions: ASO.

HELM strings list units from the 5' end as sugar, base in round brackets, then linkage (d deoxyribose, r ribose, m 2'-O-methyl, p phosphodiester). Strings are as the collection lists them; they lack the last nucleoside at the 3' end of the tested compound. [moe] = 2'-O-(2-methoxyethyl) (MOE); [sp] = phosphorothioate linkage; [m5C] = 5-methylcytosine

As to “RNA1{[moe](T)[sp].[moe]([m5C])p.[moe](A)p.[moe](T)p.[moe](A)[sp].d(T)[sp].d(T)[sp].d(G)[sp].d(T)[sp].d([m5C])[sp].d(T)[sp].d(T)[sp].d([m5C])[sp].d(A)[sp].d(A)[sp].[moe](T)p.[moe](G)p.[moe](T)[sp].[moe](G)}$$$$ (last 3' nucleoside missing)”, the 3 h FOB score came to 2 score 0-7.

Regarding “RNA1{[moe](T)[sp].[moe]([m5C])p.[moe](A)p.[moe](T)p.[moe](T)[sp].d([m5C])[sp].d(T)[sp].d([m5C])[sp].d(A)[sp].d(T)[sp].d([m5C])[sp].d([m5C])[sp].d([m5C])[sp].d([m5C])[sp].d(A)[sp].[moe](G)p.[moe](G)p.[moe](T)[sp].[moe](G)}$$$$ (last 3' nucleoside missing)”, the 3 h FOB score amounted to 0 score 0-7.

Turning to “RNA1{[moe](T)[sp].[moe]([m5C])p.[moe](A)p.[moe](T)p.[moe]([m5C])[sp].d(A)[sp].d(A)[sp].d([m5C])[sp].d(T)[sp].d(T)[sp].d(T)[sp].d(T)[sp].d(T)[sp].d(A)[sp].d(G)[sp].[moe](T)p.[moe]([m5C])p.[moe]([m5C])[sp].[moe](T)}$$$$ (last 3' nucleoside missing)”, the 3 h FOB score came to 0.67 score 0-7.

The substance “RNA1{[moe](T)[sp].[moe]([m5C])p.[moe](A)p.[moe](T)p.[moe]([m5C])[sp].d(A)[sp].d([m5C])[sp].d([m5C])[sp].d(A)[sp].d(T)[sp].d(A)[sp].d([m5C])[sp].d(A)[sp].d(T)[sp].d(A)[sp].[moe](G)p.[moe]([m5C])p.[moe](A)[sp].[moe](G)}$$$$ (last 3' nucleoside missing)” displayed a 3 h FOB score of 0.67 score 0-7.

Substance “RNA1{[moe](T)[sp].[moe]([m5C])p.[moe](A)p.[moe]([m5C])p.[moe](A)[sp].d(G)[sp].d(T)[sp].d(T)[sp].d(T)[sp].d(A)[sp].d([m5C])[sp].d([m5C])[sp].d([m5C])[sp].d([m5C])[sp].d(A)[sp].[moe](A)p.[moe](G)p.[moe]([m5C])[sp].[moe](T)}$$$$ (last 3' nucleoside missing)” yielded a 3 h FOB score of 0 score 0-7.

Take “RNA1{[moe](T)[sp].[moe]([m5C])p.[moe](G)p.[moe](G)p.[moe](A)[sp].d([m5C])[sp].d(T)[sp].d(T)[sp].d(A)[sp].d([m5C])[sp].d(T)[sp].d(G)[sp].d(T)[sp].d(A)[sp].d(A)[sp].[moe](T)p.[moe](G)p.[moe](G)[sp].[moe](G)}$$$$ (last 3' nucleoside missing)”: the 3 h FOB score is 1.25 score 0-7.

On to “RNA1{[moe](T)[sp].[moe]([m5C])p.[moe](T)p.[moe](G)p.[moe](A)[sp].d(T)[sp].d(A)[sp].d(T)[sp].d(T)[sp].d([m5C])[sp].d(A)[sp].d([m5C])[sp].d(T)[sp].d(T)[sp].d(A)[sp].[moe](T)p.[moe]([m5C])p.[moe](T)[sp].[moe](G)}$$$$ (last 3' nucleoside missing)”, for which the 3 h FOB score was found to be 0 score 0-7.

For “RNA1{[moe](T)[sp].[moe]([m5C])p.[moe](T)p.[moe](G)p.[moe](T)[sp].d(A)[sp].d(T)[sp].d(T)[sp].d(A)[sp].d(T)[sp].d(A)[sp].d([m5C])[sp].d(T)[sp].d([m5C])[sp].d(T)[sp].[moe](G)p.[moe](G)p.[moe](G)[sp].[moe]([m5C])}$$$$ (last 3' nucleoside missing)”, the 3 h FOB score is 2.5 score 0-7.

In turn, “RNA1{[moe](T)[sp].[moe]([m5C])p.[moe](T)p.[moe](T)p.[moe](G)[sp].d(A)[sp].d(T)[sp].d(A)[sp].d(T)[sp].d(T)[sp].d(T)[sp].d(G)[sp].d(T)[sp].d([m5C])[sp].d(A)[sp].[moe](A)p.[moe]([m5C])p.[moe]([m5C])[sp].[moe]([m5C])}$$$$ (last 3' nucleoside missing)” came in with a 3 h FOB score of 5 score 0-7.

“RNA1{[moe](T)[sp].[moe]([m5C])p.[moe](T)p.[moe](T)p.[moe]([m5C])[sp].d(A)[sp].d(A)[sp].d([m5C])[sp].d(T)[sp].d(T)[sp].d(A)[sp].d(G)[sp].d(T)[sp].d([m5C])[sp].d(A)[sp].[moe](T)p.[moe]([m5C])p.[moe]([m5C])[sp].[moe](T)}$$$$ (last 3' nucleoside missing)” came in with a 3 h FOB score of 0 score 0-7.

“RNA1{[moe](T)[sp].[moe]([m5C])p.[moe](T)p.[moe](T)p.[moe]([m5C])[sp].d(A)[sp].d([m5C])[sp].d(T)[sp].d([m5C])[sp].d([m5C])[sp].d([m5C])[sp].d(A)[sp].d(T)[sp].d([m5C])[sp].d(T)[sp].[moe](G)p.[moe]([m5C])p.[moe](A)[sp].[moe](T)}$$$$ (last 3' nucleoside missing)” had a 3 h FOB score of 1 score 0-7.

Take “RNA1{[moe](T)[sp].[moe]([m5C])p.[moe](T)p.[moe](T)p.[moe]([m5C])[sp].d(T)[sp].d(T)[sp].d([m5C])[sp].d([m5C])[sp].d(A)[sp].d([m5C])[sp].d([m5C])[sp].d(T)[sp].d([m5C])[sp].d(A)[sp].[moe](G)p.[moe]([m5C])p.[moe]([m5C])[sp].[moe](A)}$$$$ (last 3' nucleoside missing)”: the 3 h FOB score was determined as 0.5 score 0-7.

The substance “RNA1{[moe](T)[sp].[moe]([m5C])p.[moe](T)p.[moe](T)p.[moe]([m5C])[sp].d([m5C])[sp].d([m5C])[sp].d(A)[sp].d([m5C])[sp].d(A)[sp].d(T)[sp].d(T)[sp].d(A)[sp].d(T)[sp].d(T)[sp].[moe]([m5C])p.[moe](T)p.[moe](A)[sp].[moe](T)}$$$$ (last 3' nucleoside missing)” displayed a 3 h FOB score of 0 score 0-7.

“RNA1{[moe](T)[sp].[moe]([m5C])p.[moe](T)p.[moe]([m5C])p.[moe](A)[sp].d(T)[sp].d(A)[sp].d(G)[sp].d(T)[sp].d([m5C])[sp].d(T)[sp].d(T)[sp].d(A)[sp].d(A)[sp].d(T)[sp].[moe](T)p.[moe]([m5C])p.[moe]([m5C])[sp].[moe]([m5C])}$$$$ (last 3' nucleoside missing)” returned a 3 h FOB score of 0 score 0-7.

“RNA1{[moe](T)[sp].[moe]([m5C])p.[moe](T)p.[moe]([m5C])p.[moe](T)[sp].d([m5C])[sp].d(A)[sp].d(T)[sp].d(A)[sp].d(G)[sp].d(T)[sp].d([m5C])[sp].d(T)[sp].d(T)[sp].d(A)[sp].[moe](A)p.[moe](T)p.[moe](T)[sp].[moe]([m5C])}$$$$ (last 3' nucleoside missing)” yielded a 3 h FOB score of 0 score 0-7.

“RNA1{[moe](T)[sp].[moe]([m5C])p.[moe](T)p.[moe]([m5C])p.[moe]([m5C])[sp].d(A)[sp].d(A)[sp].d(T)[sp].d(T)[sp].d(T)[sp].d(T)[sp].d(A)[sp].d(A)[sp].d([m5C])[sp].d(T)[sp].[moe](T)p.[moe](G)p.[moe]([m5C])[sp].[moe](A)}$$$$ (last 3' nucleoside missing)”: the 3 h FOB score was 0 score 0-7.

The substance “RNA1{[moe](T)[sp].[moe]([m5C])p.[moe]([m5C])p.[moe](A)p.[moe](A)[sp].d(A)[sp].d(G)[sp].d(A)[sp].d(T)[sp].d(T)[sp].d([m5C])[sp].d([m5C])[sp].d(A)[sp].d([m5C])[sp].d(T)[sp].[moe](T)p.[moe](T)p.[moe]([m5C])[sp].[moe](T)}$$$$ (last 3' nucleoside missing)” displayed a 3 h FOB score of 0.5 score 0-7.

Substance “RNA1{[moe](T)[sp].[moe]([m5C])p.[moe]([m5C])p.[moe](A)p.[moe](A)[sp].d(T)[sp].d(T)[sp].d(T)[sp].d(T)[sp].d(A)[sp].d(A)[sp].d([m5C])[sp].d(T)[sp].d(T)[sp].d(G)[sp].[moe]([m5C])p.[moe](A)p.[moe]([m5C])[sp].[moe]([m5C])}$$$$ (last 3' nucleoside missing)” returned a 3 h FOB score of 0.5 score 0-7.

The substance “RNA1{[moe](T)[sp].[moe]([m5C])p.[moe]([m5C])p.[moe](A)p.[moe](T)[sp].d([m5C])[sp].d(T)[sp].d(T)[sp].d([m5C])[sp].d(A)[sp].d([m5C])[sp].d(T)[sp].d(T)[sp].d([m5C])[sp].d(A)[sp].[moe](G)p.[moe](A)p.[moe](G)[sp].[moe](A)}$$$$ (last 3' nucleoside missing)” yielded a 3 h FOB score of 0.5 score 0-7.

As to “RNA1{[moe](T)[sp].[moe]([m5C])p.[moe]([m5C])p.[moe](G)p.[moe](A)[sp].d(G)[sp].d(T)[sp].d([m5C])[sp].d(A)[sp].d(T)[sp].d([m5C])[sp].d([m5C])[sp].d(T)[sp].d([m5C])[sp].d([m5C])[sp].[moe](T)p.[moe]([m5C])p.[moe]([m5C])[sp].[moe](G)}$$$$ (last 3' nucleoside missing)”, the 3 h FOB score was 1 score 0-7.

“RNA1{[moe](T)[sp].[moe]([m5C])p.[moe]([m5C])p.[moe]([m5C])p.[moe](A)[sp].d(T)[sp].d(A)[sp].d([m5C])[sp].d(A)[sp].d(T)[sp].d(G)[sp].d(A)[sp].d(T)[sp].d(T)[sp].d(T)[sp].[moe](T)p.[moe](A)p.[moe](G)[sp].[moe](G)}$$$$ (last 3' nucleoside missing)” gave a 3 h FOB score of 1.25 score 0-7.

For the substance “RNA1{[moe]([m5C])[sp].[moe](A)[sp].[moe](T)p.[moe]([m5C])p.[moe](A)[sp].d([m5C])[sp].d(T)[sp].d(T)[sp].d(A)[sp].d([m5C])[sp].d(A)[sp].d(A)[sp].d(A)[sp].d([m5C])[sp].d(T)[sp].[moe]([m5C])p.[moe](A)p.[moe]([m5C])[sp].[moe]([m5C])}$$$$ (last 3' nucleoside missing)”, the 3 h FOB score was 0 score 0-7.

Substance “RNA1{[moe]([m5C])[sp].[moe](A)p.[moe](A)p.[moe](A)p.[moe](G)[sp].d(A)[sp].d(T)[sp].d(T)[sp].d([m5C])[sp].d([m5C])[sp].d(A)[sp].d([m5C])[sp].d(T)[sp].d(T)[sp].d(T)[sp].[moe]([m5C])p.[moe](T)p.[moe]([m5C])[sp].[moe]([m5C])}$$$$ (last 3' nucleoside missing)” displayed a 3 h FOB score of 7 score 0-7.

Consider “RNA1{[moe]([m5C])[sp].[moe](A)p.[moe](G)p.[moe]([m5C])p.[moe]([m5C])[sp].d([m5C])[sp].d([m5C])[sp].d(A)[sp].d(A)[sp].d(A)[sp].d(A)[sp].d(G)[sp].d(A)[sp].d(A)[sp].d(T)[sp].[moe](G)p.[moe]([m5C])p.[moe]([m5C])[sp].[moe](A)}$$$$ (last 3' nucleoside missing)”, for which the 3 h FOB score was 0.5 score 0-7.

Values taken from the OligoGym collection.
